Reference: PubChem BioAssay (NCI)
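1) Cells in 96-well plates. 2) Compound, 48 h, 5 concentrations. 3) Linear interpolation between surrounding doses. 4) Unreached endpoint = highest concentration. TGI: concentration producing complete growth inhibition.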

Assays:
Assay in all cases: NCI-60 cell line screen, 48 h
[1] = test system: UACC-257 melanoma
[2] = test system: SF-268 CNS
[3] = test system: U251 CNS
[4] = test system: RXF 393 renal
[5] = test system: UACC-62 melanoma
[6] = test system: K-562 leukemia
[7] = test system: MALME-3M melanoma
[8] = test system: EKVX NSCLC
[9] = test system: NCI-H226 lung
[10] = test system: MDA-MB-231 breast
[11] = test system: HT29 colon
[12] = test system: SF-539 CNS
[13] = test system: HL-60(TB) leukemia
[14] = test system: MOLT-4 leukemia
[15] = test system: M14 melanoma
[16] = test system: DU-145 prostate
[17] = test system: OVCAR-5 ovarian
[18] = test system: UO-31 renal
[19] = test system: OVCAR-8 ovarian
[20] = test system: SNB-19 CNS
[21] = test system: SK-OV-3 ovarian
[22] = test system: TK-10 renal
[23] = test system: NCI-H23 lung
[24] = test system: KM12 colon
[25] = test system: ACHN renal
[26] = test system: HS 578T breast
[27] = test system: SW-620 colon
[28] = test system: 786-0 renal
[29] = test system: OVCAR-3 ovarian
[30] = test system: HCT-116 colon
[31] = test system: PC-3 prostate
[32] = test system: SN12C renal
[33] = test system: IGROV1 ovarian
[34] = test system: SK-MEL-28 melanoma
[35] = test system: HOP-62 NSCLC
[36] = test system: MDA-N
[37] = test system: MDA-MB-435
[38] = test system: HCT-15 colon
[39] = test system: LOX IMVI melanoma
[40] = test system: BT-549 breast
[41] = test system: SK-MEL-5 melanoma
[42] = test system: SK-MEL-2 melanoma
[43] = test system: MCF7 breast
[44] = test system: COLO 205 colon
[45] = test system: CAKI-1 renal
[46] = test system: T-47D breast
[47] = test system: NCI/ADR-RES ovarian
[48] = test system: CCRF-CEM leukemia
[49] = test system: RPMI-8226 leukemia
[50] = test system: HOP-92 NSCLC
[51] = test system: NCI-H522 lung
[52] = test system: NCI-H460 lung
[53] = test system: SF-295 CNS
[54] = test system: SR leukemia
[55] = test system: HCC-2998 colon
[56] = test system: SNB-75 CNS
[57] = test system: A549 NSCLC
[58] = test system: OVCAR-4 ovarian
[59] = test system: A498 renal

CC1CC/C(=C\c2ccc(Cl)cc2)C2OC(N)=C(C#N)C(c3ccc(Cl)cc3)=C12 (configuration not stated)
TGI [1]: 53.4 µM | TGI [2]: 31.2 µM | TGI [3]: 30.6 µM | TGI [4]: 71.8 µM | TGI [5]: 31 µM | TGI [6]: 51.8 µM | TGI [7]: 28.7 µM | TGI [8]: 22.7 µM | TGI [9]: 27.1 µM | TGI [10]: 23.7 µM | TGI [11]: 20.7 µM | TGI [12]: 28 µM | TGI [13]: 27.4 µM | TGI [14]: 24.2 µM | TGI [15]: 39 µM | TGI [16]: 34.5 µM | TGI [17]: 37.5 µM | TGI [18]: 24.9 µM | TGI [19]: 27.4 µM | TGI [20]: 39.6 µM | TGI [21]: 40 µM | TGI [22]: 41.3 µM | TGI [23]: 29.4 µM | TGI [24]: 28.8 µM | TGI [25]: 29.9 µM | TGI [26]: 49.1 µM | TGI [27]: 89 µM | TGI [28]: 26.5 µM | TGI [29]: 27.5 µM | TGI [30]: 27.4 µM | TGI [31]: 28.4 µM | TGI [32]: 26.5 µM | TGI [33]: 26.5 µM | TGI [34]: 37.5 µM | TGI [35]: 9.84 µM | TGI [36]: 32.2 µM | TGI [37]: 44.2 µM | TGI [38]: 23.1 µM | TGI [39]: 26.6 µM | TGI [40]: 30.7 µM | TGI [41]: 32.1 µM | TGI [42]: 27.2 µM | TGI [43]: 29.8 µM | TGI [44]: 25.2 µM | TGI [45]: 31.2 µM | TGI [46]: 17.8 µM | TGI [47]: 25.9 µM | TGI [48]: 31.2 µM | TGI [49]: 29.2 µM

CCCC(=O)NC(Nc1ccc(S(=O)(=O)Nc2nc(C)cc(C)n2)cc1)(C(F)(F)F)C(F)(F)F
TGI [1]: > 100 µM | TGI [2]: > 100 µM | TGI [3]: > 100 µM | TGI [4]: > 100 µM | TGI [50]: > 100 µM | TGI [5]: > 100 µM | TGI [6]: > 100 µM | TGI [7]: > 100 µM | TGI [8]: > 100 µM | TGI [9]: > 100 µM | TGI [10]: > 100 µM | TGI [11]: > 100 µM | TGI [51]: > 100 µM | TGI [12]: > 100 µM | TGI [13]: > 100 µM | TGI [14]: > 100 µM | TGI [15]: > 100 µM | TGI [16]: > 100 µM | TGI [17]: > 100 µM | TGI [18]: > 100 µM | TGI [19]: > 100 µM | TGI [20]: > 100 µM | TGI [52]: > 100 µM | TGI [21]: > 100 µM | TGI [22]: > 100 µM | TGI [23]: > 100 µM | TGI [24]: > 100 µM | TGI [53]: > 100 µM | TGI [25]: > 100 µM | TGI [26]: > 100 µM | TGI [27]: > 100 µM | TGI [28]: > 100 µM | TGI [29]: > 100 µM | TGI [30]: > 100 µM | TGI [31]: > 100 µM | TGI [54]: > 100 µM | TGI [55]: > 100 µM | TGI [32]: > 100 µM | TGI [33]: > 100 µM | TGI [34]: > 100 µM | TGI [35]: > 100 µM | TGI [56]: > 100 µM | TGI [36]: > 100 µM | TGI [37]: > 100 µM | TGI [38]: > 100 µM | TGI [39]: > 100 µM | TGI [57]: > 100 µM | TGI [40]: > 100 µM | TGI [58]: > 100 µM | TGI [41]: > 100 µM | TGI [42]: > 100 µM | TGI [44]: > 100 µM | TGI [45]: > 100 µM | TGI [46]: > 100 µM | TGI [47]: > 100 µM | TGI [48]: > 100 µM | TGI [49]: > 100 µM | TGI [59]: > 100 µM
